Experiments:
Assay type in all cases: functional, Urine
Rattus norvegicus [1] = assay: Inhibition of deoxycorticosterone acetate-induced urinary electrolyte effects in sc dosed adrenalectomized rat assessed as increase in Na:K ratio
Rattus norvegicus [2] = assay: Inhibition of deoxycorticosterone acetate-induced urinary electrolyte effects in intragastrically dosed adrenalectomized rat assessed as increase in Na:K ratio
Rattus norvegicus [3] = assay: Ratio of MED for Inhibition of deoxycorticosterone acetate-induced urinary electrolyte effects in intragastrically dosed adrenalectomized rat to MED for deoxycorticosterone acetate-induced urinary electrolyte effects in sc dosed adrenalectomized rat

| SMILES | MED (Rattus norvegicus [1]) [mg] | MED (Rattus norvegicus [2]) [mg] | Ratio (Rattus norvegicus [3]) |
| --- | --- | --- | --- |
| C=C1C2=CC(=O)CC[C@]2(C)[C@H]2CC[C@@]3(C)[C@@H](CC[C@@]34CCC(=O)O4)[C@@H]2[C@@H]1C(=O)OC | >2.4 | >2.4 |  |
| CC(=O)S[C@@H]1CC2=CC(=O)CC[C@]2(C)[C@H]2CC[C@@]3(C)[C@@H](CC[C@@]34CCC(=O)O4)[C@H]12 [SPIRONOLACTONE] | 0.33 | 0.48 |  |
| COC(=O)[C@H]1[C@@H]2[C@H](CC[C@@]3(C)[C@H]2CC[C@@]32CCC(=O)O2)[C@@]2(C)CCC(=O)C=C2[C@@H]1C | 0.2 | 0.58 |  |
| [2H][C@H]1C2=CC(=O)CC[C@]2(C)[C@H]2CC[C@@]3(C)[C@@H](CC[C@@]34CCC(=O)O4)[C@@H]2[C@@H]1C(=O)OC | 0.3 | 1 |  |
| COC(=O)[C@H]1[C@@H]2[C@H](CC[C@@]3(C)[C@H]2CC[C@@]32CCC(=O)O2)[C@@]2(C)CCC(=O)C=C2[C@@H]1O | 0.42 | 2.12 |  |
| CC(C)OC(=O)[C@H]1[C@@H]2[C@H](CC[C@@]3(C)[C@H]2CC[C@@]32CCC(=O)O2)[C@@]2(C)CCC(=O)C=C2[C@@H]1O | 0.28 | 1.81 | 6 |
| COC(=O)[C@H]1[C@@H]2[C@H](CC[C@@]3(C)[C@H]2CC[C@@]32CCC(=O)O2)[C@@]2(C)CCC(=O)C=C2[C@H]1C | 0.47 | >2.4 |  |
| COC(=O)[C@H]1[C@@H]2[C@H](CC[C@@]3(C)[C@H]2CC[C@@]32CCC(=O)O2)[C@@]2(C)CCC(=O)C=C2[C@@H]1Br | 0.58 | 1.05 |  |
